Measured values from publication PMC8428568, “Discovery of re-purposed drugs that slow SARS-CoV-2 replication in human cells” (PLoS Pathogens, 2021).
Structures can show the parent of a compound that is named as a salt. Where two headings read alike, the source gives them in different places.

Legend:
recombinant NLuc = assay type: biochemical
[1] = tested on: SARS-CoV-2-ΔOrf7a-NLuc virus; experiment: microbe, parasite or virus in culture; assay type: cell-based
[2] = recombinant NLuc activity relative to DMSO
[3] = recombinant NLuc, first read column
[4] = recombinant NLuc, fourth read column
[5] = recombinant NLuc, third read column

Compound | Relative Recombinant NLUC (recombinant NLuc; [2]) | Reads Counts per second (read 1) (recombinant NLuc; [3]) [Counts per second] | Reads Counts per second (read 4) (recombinant NLuc; [4]) [Counts per second] | Reads Counts per second (read 2) (recombinant NLuc; recombinant NLuc) [Counts per second] | Reads Counts per second (read 3) (recombinant NLuc; [5]) [Counts per second] | % activity in Vero 100PFU screen [1] [%] | Reads Counts per second (read 1) (recombinant NLuc) [Counts per second] | Reads Counts per second (read 3) (recombinant NLuc) [Counts per second] | Reads Counts per second (read 4) (recombinant NLuc) [Counts per second] | Relative Recombinant NLUC (recombinant NLuc) | activity at 10 µM ([1]; Severe acute respiratory syndrome coronavirus 2, Vero, 72 h, […], 1 = untreated, 0 = total inhibition, read-out: Mean relative luminescence (n=4)) [%]
Cc1[nH]cnc1CN1CCc2c(c3ccccc3n2C)C1=O [Alosetron Hydrochloride] | 0.8898 | 328498 | 339698 | 338671 | 337783 | 177 |  |  |  |  | 
CC(C)(C)NC(=O)N[C@H](C(=O)N1C[C@H]2[C@@H]([C@H]1C(=O)NC(CC1CCC1)C(=O)C(N)=O)C2(C)C)C(C)(C)C (some centres unmarked) [Boceprevir] | 0.9177 | 341877 | 349417 | 348889 | 346623 | 178 |  |  |  |  | 
C[N+]1(C)CCCC(OC(=O)C(O)(c2ccccc2)c2ccccc2)C1 (centres unmarked) [Mepenzolate Bromide] |  |  |  |  |  | 175 | 330221 | 339233 | 336213 | 0.8896 | 
CNCCC(Oc1ccc(C(F)(F)F)cc1)c1ccccc1.Cl (centres unmarked) [Fluoxetine HCl] |  | 317425 | 307707 |  | 314163 | 2.12 |  |  |  |  | 
O=C([O-])CC(O)(CC(=O)[O-])C(=O)[O-].[Li+].[Li+].[Li+] [Lithium Citrate] | 0.9217 | 343238 | 343490 |  | 350985 | 205 |  |  |  |  | 
CN(C(=O)CN(CCO)CC(=O)N(C)C(C)(C)Cc1ccccc1)C(C)(C)Cc1ccccc1 [Oxethazaine] | 0.8736 | 330534 | 321724 |  | 331517 | 167 |  |  |  |  | 
C[C@H](CCC(=O)O)[C@H]1CC[C@H]2[C@@H]3CC[C@@H]4C[C@H](O)CC[C@]4(C)[C@H]3CC[C@]12C [Lithocholic Acid] | 0.9342 | 350340 | 353302 |  | 350189 | 205 |  |  |  |  | 
N#CC[C@H](C1CCCC1)n1cc(-c2ncnc3[nH]ccc23)cn1 [Ruxolitinib (INCB018424), Ruxolitinib] | 0.8381 | 314540 | 316727 |  | 317488 | 169 |  |  |  |  | 
N[C@@H](Cc1ccc(O)c(O)c1)C(=O)O [Levodopa] | 0.839 | 304150 | 316577 |  | 322065 | 233 |  |  |  |  | 
C[C@](N)(Cc1ccc(O)c(O)c1)C(=O)O [Methyldopa] | 0.9666 | 361429 | 367357 |  | 364798 | 175 |  |  |  |  | 
Cn1c(=O)cc(N2CCC[C@@H](N)C2)n(Cc2ccccc2C#N)c1=O [Alogliptin Benzoate] | 0.863 | 316906 | 323679 | 332493 | 331161 | 166 |  |  |  |  | 
CC(C)(C)c1ccc(C(=O)CCCN2CCC(OC(c3ccccc3)c3ccccc3)CC2)cc1 [Ebastine] |  | 323732 | 326603 |  | 324560 |  |  |  |  |  | 0.793
O=C(O)COCCN1CCN(C(c2ccccc2)c2ccc(Cl)cc2)CC1 (centres unmarked) [Cetirizine] | 0.4486 | 170134 | 171706 |  | 168670 | 161 |  |  |  |  | 
C[C@H]1CN(C[C@H](Cc2ccccc2)C(=O)NCC(=O)O)CC[C@@]1(C)c1cccc(O)c1 [Alvimopan] | 0.9202 | 338215 | 352328 | 350063 | 350082 | 169 |  |  |  |  | 
C=CCNC1=C2C[C@@H](C)C[C@H](OC)[C@H](O)[C@@H](C)/C=C(\C)[C@H](OC(N)=O)[C@@H](OC)/C=C\C=C(/C)C(=O)NC(=CC1=O)C2=O [17-AAG (KOS953), 17-AAG] | 0.9121 | 339450 | 348179 | 347084 | 343744 | 209 |  |  |  |  | 
O=S(=O)(O)c1cc(O)ccc1O [Ethamsylate] | 1.029 | 388357 | 386776 |  | 391647 | 167 |  |  |  |  | 
COc1ccc2c(c1OC)C(=O)O[C@@H]2[C@H]1c2c(cc3c(c2OC)OCO3)CCN1C [Noscapine HCl] | 0.9502 | 358232 | 354994 |  | 362883 | 213 |  |  |  |  | 
Cc1ccnc2c1NC(=O)c1cccnc1N2C1CC1 [Nevirapine] | 0.9932 | 371882 | 373316 |  | 379254 | 187 |  |  |  |  | 
O=C(O)[C@H]1O[C@@H](Oc2cc3oc(-c4ccccc4)cc(=O)c3c(O)c2O)[C@H](O)[C@@H](O)[C@@H]1O [Baicalin] | 0.9439 | 353023 | 357276 | 358945 | 357158 | 164 |  |  |  |  | 
NC(=O)CC[C@H](N)C(=O)O [L-Glutamine] | 0.9419 | 349150 | 350740 |  | 361792 | 204 |  |  |  |  | 
(+)-Catechin hydrate | 0.9621 | 362209 | 367703 | 357899 | 366108 | 160 |  |  |  |  | 
OB1OCc2cc(F)ccc21 [AN-2690] | 0.8709 | 329173 | 324160 | 329953 | 332892 | 171 |  |  |  |  | 
CCS(=O)(=O)N1CC(CC#N)(n2cc(-c3ncnc4[nH]ccc34)cn2)C1 [Baricitinib phosphate] | 0.9095 | 337511 | 349331 | 341167 | 346435 | 199 |  |  |  |  | 
Cc1cnc(NC(=O)C2=C(O)c3ccccc3S(=O)(=O)N2C)s1 [Meloxicam (Mobic), Meloxicam] | 0.824 | 308460 | 312953 |  | 309204 | 178 |  |  |  |  | 
O=C(O)/C=C/c1ccc(O)c(O)c1 [Caffeic acid] | 1.054 | 390077 | 403178 |  | 399891 | 173 |  |  |  |  | 
Bivalirudin Trifluoroacetate | 0.8139 | 309590 | 301908 | 311058 | 307409 | 172 |  |  |  |  | 
CC(C)c1cc(C(=O)N2Cc3ccc(CN4CCN(C)CC4)cc3C2)c(O)cc1O [AT13387] | 0.7978 | 289397 | 303901 | 302902 | 309451 | 191 |  |  |  |  | 
O=c1c(-c2ccc(O)cc2)coc2cc(O)ccc12 [Daidzein] | 0.9154 | 339091 | 346126 |  | 350216 | 161 |  |  |  |  | 
